Assays:
[1] = parameters: method as in ref 12 (supplement); settings: ref 12 (supplement); cited from earlier work
[2] = parameters: method as in ref 13 (supplement); settings: ref 13 (supplement); cited from earlier work
DUT metabolism in HLM = test: Inhibition of DUT metabolism by KET in HLM; assay type: in vitro ADME, human
Description: (§1) To investigate the metabolic interaction potential between DUT and KET, the disappearance of DUT (5 μM) in RLM and HLM was determined under the absence and presence of KET at various concentrations ranging from 1 to 5000 nM. A microsomal reaction mixture was prepared as follows (total volume: 0.2 mL): 1 mM NADPH, 10 mM MgCl2, substrate (DUT), and inhibitor (KET), RLM or HLM (1 mg/mL), and 50 mM phosphate buffer. […] The unbound fractions of DUT in rat plasma, RLM, human plasma, and HLM were measured using a rapid equilibrium dialysis (RED) device (Thermo Fisher Scientific, Inc., Waltham, MA, USA) as described in a previous study. […] The fraction unbound was calculated as the ratio of the drug concentrations in the “buffer” chamber to those in the “sample” chamber. The blood-to-plasma concentration ratio (RB) of DUT was determined as described previously. […] The concentrations of DUT in the plasma sample were determined by the validated HPLC analysis.
(§2) The half maximal inhibitory concentration (IC50) of KET for the inhibition of the DUT metabolism was determined by the nonlinear regression analysis (GraphPad Prism ver. 5.01; GraphPad Software Inc., San Diego, CA, USA) based on the following Hill equation: y = Min + Max−Min/1 + (x/IC50)^-P where Max and Min are the initial and final y value, respectively, and the exponent P represents the Hill coefficient. […]

DUT metabolism in RLM = test: Inhibition of DUT metabolism by KET in RLM; assay type: in vitro ADME, rat; settings: RLM 1 mg/mL, DUT 5 μM, 90 min
Description: as §1, §2

[3] = In vivo pharmacokinetic study in rats, intravenous DUT without or with intravenous KET; parameters: species or system rat; settings: male, Sprague-Dawley, rat, plasma, iv, 2.5 mg/kg, n = 4
Excerpt: (§3) The animal experiment protocols used in the present study were approved by the Pusan National University-Institutional Animal Care and Use Committee for scientific care and ethical procedures (Busan, Korea; approval date: 01/05/2018; approval number: PNU-2018-1848). Male Sprague–Dawley rats (8-week-old; approximately 250 g) were purchased from DBL Co., Ltd. (Incheon, Korea). The rats were acclimatized in a clean room of the Laboratory Animal Center of Pusan National University (Busan, Korea) for 1 week. Then, they were fasted for 12 h prior to the pharmacokinetic experiment and then anesthetized by intramuscular injection of Zoletil at a dose of 20 mg/kg. The femoral vein and artery of the rats were cannulated with a polyethylene tube (BD Medical; Franklin Lakes, NJ, USA). At approximately 4–6 h after the surgery for cannulation, an intravenous dose of DUT (2.5 mg/kg) simultaneously with or without intravenous KET (20 mg/kg) or an oral dose of DUT (5 mg/kg) simultaneously with or without intravenous KET (20 mg/kg) was administered to the rats. Drugs were dissolved in a vehicle consisting of dimethyl sulfoxide, ethanol, and polyethylene glycol 400 at a ratio of 10:5:85 (v/v/v). Blood (approximately 200 μL) was collected in heparin pre-treated microcentrifuge tubes via the femoral artery at 0, 1, 5, 15, 30, 60, 120, 180, 240, 360, 480, and 1200 min after the intravenous dose and at 0, 5, 15, 30, 60, 120, 150, 180, 240, 360, 480, and 1200 min after the oral dose. Following centrifugation of the blood samples at 3000× g at 4 °C for 10 min [19], 100 μL aliquots of plasma were stored at −80 °C.
(§4) The half maximal inhibitory concentration (IC50) of KET for the inhibition of the DUT metabolism was determined by the nonlinear regression analysis (GraphPad Prism ver. 5.01; GraphPad Software Inc., San Diego, CA, USA) based on the following Hill equation: y = Min + Max−Min/1 + (x/IC50)^-P where Max and Min are the initial and final y value, respectively, and the exponent P represents the Hill coefficient. Peak plasma concentration (Cmax) and time to reach Cmax (Tmax) were read directly from the observed data. Non-compartmental analysis was conducted to estimate pharmacokinetic parameters such as total area under plasma concentration versus time curve from time zero to time of last sampling (AUClast), total area under plasma concentration versus time curve from time zero to infinity (AUCinf), total plasma clearance (CL), volume of distribution at steady state (Vss), and terminal half-life (t1/2) using the NCA200 and 201 models of WinNonlin ver. 3.1 (Certara USA Inc., Princeton, NJ, USA).

[4] = Stability in rat plasma (QC samples); assay type: in vitro ADME; settings: n = 5; for Stability (percent drug remaining), Autosampler: 10 °C for 24 h in the autosampler; for Stability (percent drug remaining), Bench-Top: room temperature for 3 h; for Stability (percent drug remaining), Freeze-Thaw: three freezing and thawing cycles; for Stability (percent drug remaining), Long-Term: −20 °C for 30 days
Description: The bioanalytical method proposed herein for the simultaneous determination of DUT and H-DUT was fully validated on the basis of the US FDA guideline. The selectivity of the method was evaluated by comparing chromatograms of the analytes (DUT, H-DUT, and internal standard) in blank rat plasma, blank rat plasma spiked with the analytes, and rat plasma sample obtained from the in vivo rat pharmacokinetic study. Further, the existence of potential interferences at the acquisition windows of the analytes was checked. The linearity of the method was evaluated by adding increasing amounts of DUT and H-DUT to the blank plasma. To construct calibration curves (n = 5), the peak area ratios of DUT or H-DUT to the internal standard (y-axis) were plotted against the nominal concentration ratios of DUT or H-DUT (10–1000 ng/mL) to the internal standard (400 ng/mL) (x-axis), and then, linear regression analysis was performed. The sensitivity was assessed by estimating the LLOQ (signal-to-noise [S/N] ratio > 5). The peaks of the analytes at the LLOQ should be discrete, identifiable, and reproducible with acceptable precision (<20%) and accuracy (within 80–120%). The extraction recovery, matrix effect, dilution integrity, and stability (under bench-top, freeze–thaw, post-preparative, and long-term conditions) in addition to the intra-assay (five different samples) and inter-assay (five different runs) precision and accuracy for each analyte were determined at the LLOQ and three different QC levels as described in the US FDA guidelines and in previous studies.

[5] = In vivo pharmacokinetic study in rats, oral DUT without or with KET; parameters: species or system rat; settings: male, Sprague-Dawley, rat, plasma, po, 5 mg/kg, n = 4
Excerpt: as §3, with “([…])” for “(20 mg/kg) or an oral dose of DUT (5 mg/kg) simultaneously with or without intravenous KET (20 mg/kg)”
as §4

[6] = intravenous DUT 2.5 mg/kg with intravenous KET 20 mg/kg
[7] = intravenous DUT 2.5 mg/kg, DUT alone
[8] = oral DUT 5 mg/kg with oral KET (20 mg/kg)

CC(=O)N1CCN(c2ccc(OCC3COC(Cn4ccnc4)(c4ccc(Cl)cc4Cl)O3)cc2)CC1 (centres unmarked) [KET, ketoconazole]
fu,mic,KET, unbound fraction in HLM [1]: 0.97 | Imax,u, maximum unbound plasma concentration [2]: 0.0913 µM | IC50 (DUT metabolism in HLM; HLM 1 mg/mL, DUT 5 μM, 90 min): 54.9 ± 15.6 nM | Ki (DUT metabolism in HLM; HLM, fu,mic,KET × IC50 / (S/Km + 1), competitive inhibition assumed, read-out: Ki (unbound inhibition constant)): 48.5 nM | IC50 (DUT metabolism in RLM): 77.3 ± 11.1 nM

C[C@]12C=CC(=O)N[C@@H]1[C@H](O)C[C@@H]1[C@@H]2CC[C@]2(C)[C@@H](C(=O)Nc3cc(C(F)(F)F)ccc3C(F)(F)F)CC[C@@H]12 [H-DUT, 6β-hydroxydutasteride]
AUC(0-t) [3, 6]: 1070 ng·h/mL | Cmax [3, 6]: 116 ± 4 ng/mL | AUC(0-t) [3, 7]: 2130 ng·h/mL | Cmax [3, 7]: 141 ± 17 ng/mL | Stability (percent drug remaining), Autosampler ([4]; HQC 750 ng/mL): 104 ± 1% | Stability (percent drug remaining), Bench-Top ([4]; HQC 750 ng/mL): 101 ± 0% | Stability (percent drug remaining), Freeze-Thaw ([4]; HQC 750 ng/mL): 101 ± 1% | Stability (percent drug remaining), Long-Term ([4]; HQC 750 ng/mL): 106 ± 1% | Stability (percent drug remaining), Autosampler ([4]; LLOQ 10 ng/mL): 103 ± 4% | Stability (percent drug remaining), Bench-Top ([4]; LLOQ 10 ng/mL): 102 ± 4% | Stability (percent drug remaining), Freeze-Thaw ([4]; LLOQ 10 ng/mL): 101 ± 7% | Stability (percent drug remaining), Long-Term ([4]; LLOQ 10 ng/mL): 96.1 ± 4.7% | Stability (percent drug remaining), Autosampler ([4]; LQC 30 ng/mL): 97.1 ± 0.8% | Stability (percent drug remaining), Bench-Top ([4]; LQC 30 ng/mL): 104 ± 9% | Stability (percent drug remaining), Freeze-Thaw ([4]; LQC 30 ng/mL): 99.0 ± 2.3% | Stability (percent drug remaining), Long-Term ([4]; LQC 30 ng/mL): 95.1 ± 3.7% | Stability (percent drug remaining), Autosampler ([4]; MQC 150 ng/mL): 103 ± 4% | Stability (percent drug remaining), Bench-Top ([4]; MQC 150 ng/mL): 99.0 ± 1.4% | Stability (percent drug remaining), Freeze-Thaw ([4]; MQC 150 ng/mL): 103 ± 3% | Stability (percent drug remaining), Long-Term ([4]; MQC 150 ng/mL): 98.7 ± 1.5% | AUC(0-t) [5, 8]: 630 ng·h/mL | Cmax [5, 8]: 62.8 ± 12.3 ng/mL | AUC(0-t) ([5]; oral DUT 5 mg/kg, DUT alone): 1590 ng·h/mL | Cmax ([5]; oral DUT 5 mg/kg, DUT alone): 103 ± 20 ng/mL

Reference: article PMC6956158, “In Vitro and In Vivo Assessment of Metabolic Drug Interaction Potential of Dutasteride with Ketoconazole” (Pharmaceutics, 2019)
